Reference: publication PMC4396990, “Targeting Vascular Endothelial Growth Factor Receptor 2 and Protein Kinase D1 Related Pathways by a Multiple Kinase Inhibitor in Angiogenesis and Inflammation Related Processes In Vitro” (PLoS ONE, 2015)

How the values were obtained:
Assay type in all cases: biochemical
PKD2 = target: T1, PKD2 (Homo sapiens, UniProt Q9BZL6); assay: kinase selectivity study (SignalChem) at single […] concentration
T1 construct: gene PRKD2
T1 sequence (Q9BZL6 1-878): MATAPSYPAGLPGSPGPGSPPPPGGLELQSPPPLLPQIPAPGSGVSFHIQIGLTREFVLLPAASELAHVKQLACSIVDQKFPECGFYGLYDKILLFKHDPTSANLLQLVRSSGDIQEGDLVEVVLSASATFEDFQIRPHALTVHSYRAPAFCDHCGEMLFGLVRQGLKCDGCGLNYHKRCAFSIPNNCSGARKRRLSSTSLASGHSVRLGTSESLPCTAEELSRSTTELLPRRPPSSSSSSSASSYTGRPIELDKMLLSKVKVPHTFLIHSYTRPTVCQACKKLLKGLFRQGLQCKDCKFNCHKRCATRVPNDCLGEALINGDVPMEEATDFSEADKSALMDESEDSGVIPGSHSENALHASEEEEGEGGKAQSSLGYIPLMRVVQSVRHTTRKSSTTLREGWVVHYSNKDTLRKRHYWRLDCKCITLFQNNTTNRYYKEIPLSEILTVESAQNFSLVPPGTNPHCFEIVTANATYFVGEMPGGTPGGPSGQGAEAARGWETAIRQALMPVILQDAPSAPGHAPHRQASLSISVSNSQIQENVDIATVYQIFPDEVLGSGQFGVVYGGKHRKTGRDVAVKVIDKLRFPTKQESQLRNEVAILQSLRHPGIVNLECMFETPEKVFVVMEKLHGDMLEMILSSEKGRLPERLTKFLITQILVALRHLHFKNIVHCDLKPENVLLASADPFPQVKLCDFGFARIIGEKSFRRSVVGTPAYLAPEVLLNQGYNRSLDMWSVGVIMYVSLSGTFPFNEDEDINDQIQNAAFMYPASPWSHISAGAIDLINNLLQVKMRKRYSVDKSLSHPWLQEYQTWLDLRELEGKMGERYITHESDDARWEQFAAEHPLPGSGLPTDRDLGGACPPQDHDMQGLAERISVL

VEGFR1 = target: T2, VEGFR1 (Homo sapiens, UniProt P17948); assay: recombinant kinase assay (ProQinase) at single […] concentration
T2 construct: gene FLT1
T2 sequence (P17948 27-1338): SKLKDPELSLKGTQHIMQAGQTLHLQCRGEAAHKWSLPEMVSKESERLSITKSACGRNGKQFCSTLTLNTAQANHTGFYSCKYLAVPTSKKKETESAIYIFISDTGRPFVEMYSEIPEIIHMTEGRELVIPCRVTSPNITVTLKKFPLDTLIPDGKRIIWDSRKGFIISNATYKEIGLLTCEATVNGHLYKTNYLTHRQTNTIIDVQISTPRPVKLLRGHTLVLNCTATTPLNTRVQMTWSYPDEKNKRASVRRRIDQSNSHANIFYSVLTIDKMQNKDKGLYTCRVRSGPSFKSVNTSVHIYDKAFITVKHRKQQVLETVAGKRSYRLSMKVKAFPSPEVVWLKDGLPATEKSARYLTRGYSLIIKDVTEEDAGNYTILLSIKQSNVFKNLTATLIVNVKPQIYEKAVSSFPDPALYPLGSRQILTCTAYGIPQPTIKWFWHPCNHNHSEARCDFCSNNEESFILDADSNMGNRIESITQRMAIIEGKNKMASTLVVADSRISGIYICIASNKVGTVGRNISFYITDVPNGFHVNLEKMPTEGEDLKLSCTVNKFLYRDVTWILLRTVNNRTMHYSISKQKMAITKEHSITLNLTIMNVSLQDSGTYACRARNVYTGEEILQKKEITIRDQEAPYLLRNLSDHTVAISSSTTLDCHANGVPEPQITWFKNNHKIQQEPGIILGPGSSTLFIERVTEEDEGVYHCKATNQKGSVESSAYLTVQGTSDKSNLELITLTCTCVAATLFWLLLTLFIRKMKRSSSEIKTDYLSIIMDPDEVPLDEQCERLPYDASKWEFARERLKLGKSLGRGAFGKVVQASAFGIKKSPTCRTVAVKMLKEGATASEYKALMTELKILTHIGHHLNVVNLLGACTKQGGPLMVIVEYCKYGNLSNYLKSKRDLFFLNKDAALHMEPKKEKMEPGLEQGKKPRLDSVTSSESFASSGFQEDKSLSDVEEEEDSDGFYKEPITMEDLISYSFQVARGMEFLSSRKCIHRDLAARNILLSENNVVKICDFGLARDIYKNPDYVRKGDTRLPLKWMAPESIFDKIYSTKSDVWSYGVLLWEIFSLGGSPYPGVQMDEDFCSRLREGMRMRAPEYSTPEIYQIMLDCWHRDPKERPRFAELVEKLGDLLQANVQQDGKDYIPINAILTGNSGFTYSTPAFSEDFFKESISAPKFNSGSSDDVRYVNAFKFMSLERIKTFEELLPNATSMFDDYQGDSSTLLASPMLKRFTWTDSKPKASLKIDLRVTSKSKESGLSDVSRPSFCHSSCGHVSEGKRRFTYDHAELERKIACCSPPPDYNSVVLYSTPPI

PKD1 = target: T3, PKD1 (Homo sapiens, UniProt Q15139); assay: recombinant kinase assay (IMAP fluorescence polarization, TAMRA-peptide)
T3 construct: gene PRKD1
T3 sequence (Q15139 1-912): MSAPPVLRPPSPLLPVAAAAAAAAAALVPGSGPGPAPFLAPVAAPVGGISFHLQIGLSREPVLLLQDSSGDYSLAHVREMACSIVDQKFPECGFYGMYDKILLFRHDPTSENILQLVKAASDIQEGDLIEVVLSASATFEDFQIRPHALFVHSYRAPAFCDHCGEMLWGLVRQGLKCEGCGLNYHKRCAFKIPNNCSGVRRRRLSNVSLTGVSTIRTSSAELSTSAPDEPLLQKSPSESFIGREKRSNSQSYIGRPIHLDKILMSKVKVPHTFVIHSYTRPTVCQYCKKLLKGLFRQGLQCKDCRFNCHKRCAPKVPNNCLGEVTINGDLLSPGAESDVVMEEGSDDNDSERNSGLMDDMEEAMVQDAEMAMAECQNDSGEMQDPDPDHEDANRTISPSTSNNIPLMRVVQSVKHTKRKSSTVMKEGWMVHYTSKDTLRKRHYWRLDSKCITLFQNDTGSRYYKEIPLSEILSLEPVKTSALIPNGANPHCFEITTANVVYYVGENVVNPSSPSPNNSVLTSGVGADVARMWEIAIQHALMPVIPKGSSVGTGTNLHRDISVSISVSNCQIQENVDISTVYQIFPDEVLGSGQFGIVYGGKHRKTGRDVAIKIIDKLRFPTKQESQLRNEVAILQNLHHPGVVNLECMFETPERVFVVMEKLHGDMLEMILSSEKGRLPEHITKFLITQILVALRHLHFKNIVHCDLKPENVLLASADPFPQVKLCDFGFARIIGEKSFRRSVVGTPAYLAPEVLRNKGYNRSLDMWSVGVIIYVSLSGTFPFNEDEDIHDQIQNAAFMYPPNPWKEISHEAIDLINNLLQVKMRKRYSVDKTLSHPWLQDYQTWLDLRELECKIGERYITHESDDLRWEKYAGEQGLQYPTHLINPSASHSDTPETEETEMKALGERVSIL

VEGFR3 = target: T4, VEGFR3 (Homo sapiens, UniProt P35916); assay: recombinant kinase assay (ProQinase) at single […] concentration
T4 construct: gene FLT4
T4 sequence (P35916 25-1363): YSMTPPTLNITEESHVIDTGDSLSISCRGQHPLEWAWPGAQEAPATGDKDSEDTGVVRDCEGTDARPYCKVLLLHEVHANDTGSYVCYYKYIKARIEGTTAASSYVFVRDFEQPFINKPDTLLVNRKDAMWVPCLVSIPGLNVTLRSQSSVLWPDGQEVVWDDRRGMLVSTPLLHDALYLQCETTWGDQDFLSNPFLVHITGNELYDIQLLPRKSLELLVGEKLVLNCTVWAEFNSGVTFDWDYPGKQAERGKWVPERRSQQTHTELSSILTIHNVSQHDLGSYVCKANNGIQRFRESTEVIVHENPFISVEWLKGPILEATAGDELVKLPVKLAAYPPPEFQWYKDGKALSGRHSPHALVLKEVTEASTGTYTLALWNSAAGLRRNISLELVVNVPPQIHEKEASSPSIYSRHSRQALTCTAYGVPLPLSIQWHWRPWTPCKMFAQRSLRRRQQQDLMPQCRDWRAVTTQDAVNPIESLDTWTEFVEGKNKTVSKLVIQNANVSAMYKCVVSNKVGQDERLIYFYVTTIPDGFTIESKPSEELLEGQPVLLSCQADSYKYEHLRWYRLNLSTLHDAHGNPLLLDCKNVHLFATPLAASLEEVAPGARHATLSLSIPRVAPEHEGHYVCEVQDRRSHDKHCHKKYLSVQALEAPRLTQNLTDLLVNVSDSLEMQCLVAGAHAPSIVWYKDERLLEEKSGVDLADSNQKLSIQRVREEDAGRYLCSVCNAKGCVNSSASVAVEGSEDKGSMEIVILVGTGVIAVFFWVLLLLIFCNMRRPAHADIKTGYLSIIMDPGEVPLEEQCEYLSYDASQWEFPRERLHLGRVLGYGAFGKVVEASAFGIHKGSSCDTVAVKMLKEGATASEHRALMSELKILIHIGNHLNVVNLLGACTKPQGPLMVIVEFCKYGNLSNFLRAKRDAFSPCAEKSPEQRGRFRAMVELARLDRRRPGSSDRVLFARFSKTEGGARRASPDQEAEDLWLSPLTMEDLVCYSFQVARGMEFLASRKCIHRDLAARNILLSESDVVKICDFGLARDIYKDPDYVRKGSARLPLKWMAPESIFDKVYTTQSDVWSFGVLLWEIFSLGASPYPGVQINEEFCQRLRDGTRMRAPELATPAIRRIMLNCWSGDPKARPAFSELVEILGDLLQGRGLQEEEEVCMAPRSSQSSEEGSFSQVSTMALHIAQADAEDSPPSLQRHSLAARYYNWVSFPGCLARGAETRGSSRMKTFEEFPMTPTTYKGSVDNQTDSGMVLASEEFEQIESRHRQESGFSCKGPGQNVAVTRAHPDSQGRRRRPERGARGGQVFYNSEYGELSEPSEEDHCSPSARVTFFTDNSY

VEGFR2 = target: T5, VEGFR2 (Homo sapiens, UniProt P35968); assay: recombinant kinase assay (Transcreener ADP detection)
T5 construct: gene KDR
T5 sequence (P35968 20-1356): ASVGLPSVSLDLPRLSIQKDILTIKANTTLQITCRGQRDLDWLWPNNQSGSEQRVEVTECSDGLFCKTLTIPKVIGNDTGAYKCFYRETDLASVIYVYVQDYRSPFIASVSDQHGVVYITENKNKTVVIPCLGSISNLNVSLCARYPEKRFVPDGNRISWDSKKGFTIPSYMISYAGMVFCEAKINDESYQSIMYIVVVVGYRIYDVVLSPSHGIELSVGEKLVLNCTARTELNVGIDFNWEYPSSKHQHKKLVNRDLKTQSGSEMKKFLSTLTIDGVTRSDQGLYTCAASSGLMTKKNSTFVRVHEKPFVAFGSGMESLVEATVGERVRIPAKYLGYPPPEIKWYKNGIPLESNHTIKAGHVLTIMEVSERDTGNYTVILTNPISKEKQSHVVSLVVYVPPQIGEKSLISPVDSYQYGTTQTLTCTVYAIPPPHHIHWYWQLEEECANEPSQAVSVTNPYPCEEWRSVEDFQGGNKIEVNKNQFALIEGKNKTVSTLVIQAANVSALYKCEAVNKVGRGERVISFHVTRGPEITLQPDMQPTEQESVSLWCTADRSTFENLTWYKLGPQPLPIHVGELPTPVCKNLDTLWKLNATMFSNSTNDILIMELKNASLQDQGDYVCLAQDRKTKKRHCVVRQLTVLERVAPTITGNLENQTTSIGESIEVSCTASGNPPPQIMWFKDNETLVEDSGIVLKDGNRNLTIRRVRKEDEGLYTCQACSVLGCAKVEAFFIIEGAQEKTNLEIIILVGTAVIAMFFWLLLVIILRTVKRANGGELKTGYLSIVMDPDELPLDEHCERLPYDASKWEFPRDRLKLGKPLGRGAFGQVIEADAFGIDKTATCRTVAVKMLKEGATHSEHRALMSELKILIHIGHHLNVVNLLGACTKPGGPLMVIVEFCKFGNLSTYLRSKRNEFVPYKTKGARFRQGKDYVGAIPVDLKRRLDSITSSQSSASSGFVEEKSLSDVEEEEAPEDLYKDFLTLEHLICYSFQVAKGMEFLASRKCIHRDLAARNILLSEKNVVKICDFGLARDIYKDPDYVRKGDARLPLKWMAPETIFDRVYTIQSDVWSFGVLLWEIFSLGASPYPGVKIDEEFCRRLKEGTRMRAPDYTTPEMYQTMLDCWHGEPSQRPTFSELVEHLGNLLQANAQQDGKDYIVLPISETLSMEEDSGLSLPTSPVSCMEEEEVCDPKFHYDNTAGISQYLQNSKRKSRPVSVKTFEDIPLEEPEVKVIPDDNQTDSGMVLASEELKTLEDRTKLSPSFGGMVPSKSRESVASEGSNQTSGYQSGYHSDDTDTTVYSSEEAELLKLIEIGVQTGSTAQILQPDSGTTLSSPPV

In the case of `CCn1c(=O)ccc2cnc(Nc3ccc(N4CCN(C)CC4)cc3)nc21` [VCC251801], the “kinase selectivity study (SignalChem) at single 5 μM concentration” value (PKD2) is reported as “it showed moderate inhibitory effect against the other PKD isoform, PKD2”, the “recombinant kinase assay (ProQinase) at single 1 μM concentration” value (VEGFR1) is reported as “In this selectivity study, VCC251801 blocked both VEGFR1 and VEGFR3 activation” and the IC50 (PKD1) is reported as 28 nM. For the same compound, the “recombinant kinase assay (ProQinase) at single 1 μM concentration” value (VEGFR3) was “In this selectivity study, VCC251801 blocked both VEGFR1 and VEGFR3 activation” and the IC50 (VEGFR2) was 69 nM.
